Assay results reported in patent US20240197596A1, “COMPOUNDS USEFUL AS HAIR DYES” (National University of Singapore, priority 2021, published 2024).
Values joined by “and” are separate entries in the source; they are usually repeats but may differ in a detail not shown here. Equal values may be shown once. “Also recorded” adds a separate entry of the source.

Key:
THP-1 cells = experiment: MTT assay on THP-1 cells (CV75); format: cell-based, human; conditions: THP-1 cells, 24 h
Procedure: THP-1 (human acute monocytic leukaemia cell line) cell suspension was adjusted to 1×10^5 cells per well and seeded in 96-well plates. The plate was incubated at 37° C. with 5% CO2. After 24 h, 10 mM stock solutions of N1-N13 were prepared in autoclaved milli-Q water. A series of concentrations diluted in media was prepared and added to the wells. Each concentration was performed in 6-replicates, and seeded wells with only media and no compound were used as controls while wells with only media were used as blanks. The plate was incubated for 24 h, after which 100 μL of MTT reagent was added and the plate was further incubated for 3 h before adding 100 μL of DMSO. Subsequently, the plate was shaken for 20 min, and then absorbance at 570 nm was determined using a Bio-Tek plate reader. Percentage cell viability was calculated and CV75 values were determined.

IL-1α = IL-1α release assay (ELISA) in THP-1 cells; format: cell-based, human; conditions: 24 h; for release of IL-1α: CV75 dose
Procedure: (§1) CV75 values (concentration showing 75% of THP-1 cell survival) were determined as per the procedure described above in section A of this method. The IL-8 and IL-1α release assay was performed as described in Toxicol In Vitro. 2003, 17(3), 311-321. A Chemokine immunosorbent assay Bio-legend ELISA Max kit was used to quantify the levels of available IL-8 and IL-1α protein. The supernatant media of untreated THP-1 cells was treated with standards, test samples N1-N13 and DMSO in 96 well plate and then was recovered after 24 h of culture. IL-8 and IL-1α was measured by ELISA in 96-well microtiter plates according to the manufacturer protocol (Biolegend, ELISA MAX™, Singapore).

Hair nuance test = experiment: Hair nuance test; parameters: key to L* / a* / b*: CIELAB L*, a*, b* coordinates; key to ΔE (total colour difference to natural hair): ΔE = √((L*−L0)²+(a*−a0)²+(b*−b0)²) vs untreated hair; conditions: for eventual colour of bleached hair, Type B: Type B (Oxidative, H2O2) formulation; for eventual colour of bleached hair, Type C: Type C (Oxidative with coupler resorcinol) formulation; for eventual colour of bleached hair, Type A: Type A (Non-oxidative) formulation
Procedure: 35 g of bleaching powder was mixed with 50 mL of developer then applied onto undyed black hair (wrapped in aluminium foil to enhance the bleaching process) and left on for 45 min. The hair was then rinsed with deionized water and shampoo and left to dry. This process was repeated twice.
Hair dye formulations were prepared from N1-N13 according to methods reported (New Journal of Chemistry. 2019; 43(41):16188-99), and with the compositions stated in Table 11 Bleached hair samples were immersed into the respective formulations for 20 min, then air dried for 20 min. Then they were shampooed twice and treated with conditioner for 5 min.
SkinColorCatch (Delfin Technologies Ltd, Kuopio, Finland) was used to measure CIELAB tristimulus L*, a* and b* values of the dyed hair samples and baseline L0, a0, b0 values from untreated hair. The difference in colour tone (ΔH) and the total colour difference (ΔE) were then derived from the values obtained with the equations below:
ΔH=√{square root over ((a*−a0)^2+(b*−b0)^2)}
ΔE=√{square root over ((L*−L0)^2+(a*−a0)^2+(b*−b0)^2)}

[1] = Skin permeation study, Franz diffusion cell; format: in vitro ADME, porcine; conditions: for Cumulative amount at 8th hour: 1% w/v in deionized water; for Permeated through skin into receptor / Recovered in donor compartment / Recovered in skin / Recovered in skin outside diffusion area / Recovered in skin swabs / Recovered on parafilm and in washes: mass balance; for recovery at 8 h, 1 % w/v: pig, end of 8 h, read-out: Total recovery (mean percentage parent compound recovery)
Procedure: In each Franz cell, a piece of pig ear skin prepared to a thickness of […] was clamped securely. 5 mL of PBS solution was added to the receiver compartment which was purged of air bubbles to ensure maximal contact of the skin piece with the solution. Donor solution was prepared by dissolving N1-N13 in deionized water at 1% w/v, and 900 μL was added to the donor compartment. The study was conducted for 8 h, and aliquots of 200 μL were removed from the receiver solution and topped up with fresh PBS at each timepoint of 15-minutes intervals for the first hour and every hour after that.
For mass balance, at the end of 8 h, skin pieces and swabs of the top and bottom surface of the skin were collected and stored in ACN for N1-N13 extraction. Donor solution and receiver solution were also collected.
The aliquot samples collected were subjected to 2-step extraction using 750 μL of dichloromethane (DCM). […] The solvent was dried using the TurboVap, and then reconstituted with 198 μL of 0.1% formic acid in 50% methanol in water and spiked with 2 μL of ANP (internal standard). The processed aliquot samples and mass balance samples were then sent for analysis using LC-MS/MS. The compounds' steady state fluxes and permeability coefficients were then calculated by fitting the solution to Fick's […] of diffusion at the steady state (linear part) of each experimental cumulative amount curve.

IL-8 = IL-8 release assay (ELISA) in THP-1 cells; format: cell-based, human; conditions: CV75 dose, 24 h
Procedure: as §1

[2] = Type C (Oxidative with coupler resorcinol)

Row | Structure (SMILES) | CV75 (concentration affording 75% cell viability), 1 × CV75 (THP-1 cells) | release of IL-1α (IL-1α) | L* (Hair nuance test; Type A (Non-oxidative)) | a* (Hair nuance test; Type A (Non-oxidative)) | b* (Hair nuance test; Type A (Non-oxidative)) | ΔE (total colour difference to natural hair) (Hair nuance test; Type A (Non-oxidative)) | ΔH (difference in colour tone) (Hair nuance test; Type A (Non-oxidative)) | L* (Hair nuance test; Type B (Oxidative)) | a* (Hair nuance test; Type B (Oxidative)) | b* (Hair nuance test; Type B (Oxidative)) | ΔE (total colour difference to natural hair) (Hair nuance test; Type B (Oxidative)) | ΔH (difference in colour tone) (Hair nuance test; Type B (Oxidative)) | eventual colour of bleached hair, Type B (Hair nuance test) | L* (Hair nuance test; [2]) | a* (Hair nuance test; [2]) | b* (Hair nuance test; [2]) | ΔE (total colour difference to natural hair) (Hair nuance test; [2]) | ΔH (difference in colour tone) (Hair nuance test; [2]) | eventual colour of bleached hair, Type C (Hair nuance test) | Cumulative amount at 8th hour ([1]; 8 h) | also measured
1 | Nc1ccc(N)c(OCC2CO2)c1 (stereo not drawn) [Compound N4, 2-(oxiran-2-ylmethoxy)benzene-1,4-diamine] | 62.3 µg/mL | slight release | 49 | 5 | 29 | 49.1 | 28.4 | 40 | 6 | 16 | 35.0 | 16.2 | Coffee brown | 22 | 1 | −13 | 19.1 | 14.0 | vibrant blue colours; also recorded: Admiral blue | 0.0104 μg/cm^2 | IL-1α release, times lower than PPD (IL-1α): 7-8; Permeated through skin into receptor ([1]; 8 h): <0.001 % of applied compound dose; Recovered in donor compartment ([1]; 8 h): 98.9 % of applied compound dose; Recovered in skin ([1]; 8 h): 0.02 % of applied compound dose; Recovered in skin outside diffusion area ([1]; 8 h): 0.005 % of applied compound dose; Recovered in skin swabs ([1]; 8 h): 0.03 % of applied compound dose; Recovered on parafilm and in washes ([1]; 8 h): 0.008 % of applied compound dose; recovery at 8 h, 1 % w/v [1]: 99 ± 1.15%
2 | COCCOCCOc1cc(N)ccc1N [Compound N5, 2-[2-(2-methoxyethoxy)ethoxy]benzene-1,4-diamine] | 68.3 µg/mL | slight elevation; also recorded: marginal release | 18 | 4 | −1 | 10.0 | 4.5 | 26 | 3.7 | 10.3 | 19.7 | 10.0 | Almond brown | 16 | 0 | −6.7 | 10.4 | 7.7 | vibrant blue colours; also recorded: Indigo | 0.0065 μg/cm^2 and 0.00654 μg/cm^2 | release of IL-8 (IL-8): slight elevation; also recorded: marginal release; eventual colour of bleached hair, Type A (Hair nuance test): dark brown colour shade; also recorded: Dark cinnamon brown; Cumulative amount comparison of PPD vs derivatives (times less than PPD) ([1]; 8 h): 825.0; Permeated through skin into receptor ([1]; 8 h): <0.001 % of applied compound dose; Recovered in donor compartment ([1]; 8 h): 95.3 % of applied compound dose; Recovered in skin ([1]; 8 h): 0.04 % of applied compound dose; Recovered in skin outside diffusion area ([1]; 8 h): 0.0045 % of applied compound dose; Recovered in skin swabs ([1]; 8 h): 0.06 % of applied compound dose; Recovered on parafilm and in washes ([1]; 8 h): 0.009 % of applied compound dose; recovery at 8 h, 1 % w/v [1]: 95 ± 1.42%
3 | N#CCOc1cc(N)ccc1N [Compound N6, 2-(2,5-diaminophenoxy)acetonitrile] | 123.7 µg/mL | did not release significant amounts | 55.0 | 10.0 | 19.0 | 50.3 | 20.5 | 15 | 4 | 5 | 8.2 | 5.6 | Dark brown | 13 | 5 | 4 | 7.1 | 5.8 | Brownish black | 0.0145 μg/cm^2 | release of IL-8 (IL-8): did not release significant amounts; eventual colour of bleached hair, Type A (Hair nuance test): light colours; also recorded: Rose pink; Permeated through skin into receptor ([1]; 8 h): <0.001 % of applied compound dose; Recovered in donor compartment ([1]; 8 h): 99.1 % of applied compound dose; Recovered in skin ([1]; 8 h): 0.01 % of applied compound dose; Recovered in skin outside diffusion area ([1]; 8 h): 0.006 % of applied compound dose; Recovered in skin swabs ([1]; 8 h): 0.04 % of applied compound dose; Recovered on parafilm and in washes ([1]; 8 h): 0.002 % of applied compound dose
4 | C=C(C)Oc1cc(N)ccc1N [Compound N12, 2-(prop-1-en-2-yloxy)benzene-1,4-diamine] | 44.7 µg/mL | slight elevation; also recorded: marginal release | 17 | 9 | 4 | 12.4 | 3.52 | 28 | 18 | 12 | 28.39 | 5.32 | brown colour | 11 | 0 | −3 | 4.47 | 2.11 | distinct purple colour | 0.0145 μg/cm^2 and 0.0144 μg/cm^2 | release of IL-8 (IL-8): slight elevation; also recorded: marginal release; Permeated through skin into receptor ([1]; 8 h): <0.001 % of applied compound dose; Recovered in donor compartment ([1]; 8 h): 96.0 % of applied compound dose; Recovered in skin ([1]; 8 h): 0.02 % of applied compound dose; Recovered in skin outside diffusion area ([1]; 8 h): 0.0045 % of applied compound dose; Recovered in skin swabs ([1]; 8 h): 0.05 % of applied compound dose; Recovered on parafilm and in washes ([1]; 8 h): 0.007 % of applied compound dose; recovery at 8 h, 1 % w/v [1]: 96.1 ± 1%
